± gives the expanded uncertainty stated by the source. Values belong to the compound of their own block, whether it stands above or below them.
Assay: an = ratio of the nth substance listed
Details: 298.15 K; for surface tension liquid-gas: Ring tensiometer; for viscosity: 101 kPa, Liquid, Concentric cylinders viscometry

Compound: OCCCCO [1,4-butanediol] + C[N+](C)(C)CCO.[Cl-]
surface tension liquid-gas (a1 = 3): 55.8 ± 0.9 mN/m
viscosity (a1 = 3): 94 ± 6 mPa·s

Compound: O.O.O=C(O)C(=O)O [ethanedioic acid dihydrate] + C[N+](C)(C)CCO.[Cl-]
surface tension liquid-gas (a1 = 1): 60.8 ± 1 mN/m
viscosity (a1 = 1): 767 ± 140 mPa·s

Compound: NC(N)=O [urea] + C[N+](C)(C)CCO.[Cl-]
surface tension liquid-gas (a1 = 2): 71.6 ± 1.2 mN/m
viscosity (a1 = 2): 849 ± 150 mPa·s

Next, values leading:

surface tension liquid-gas (a1 = 3.5): 47.5 ± 0.8 mN/m
viscosity (a1 = 3.5): 110 ± 7 mPa·s
Compound: OCCCCCO [1,5-pentanediol] + C[N+](C)(C)CCO.[Cl-]

surface tension liquid-gas (a2 = 2): 68.7 ± 1.1 mN/m
viscosity (a2 = 2): 296 ± 32 mPa·s
Compound: C[N+](C)(C)CCO.[Cl-] [choline chloride] + OCC(O)CO

surface tension liquid-gas (a2 = 2): 56.5 ± 0.6 mN/m
viscosity (a2 = 2): 40 ± 2 mPa·s
Compound: C[N+](C)(C)CCO.[Cl-] [choline chloride] + OCCO
